The text below walks through data of patent US20240336653A1, “PEPTIDE COMPOUND TARGETING ELASTIN-DERIVED PEPTIDES AND USE THEREOF” (Shenzhen Turier Biotech Co., Ltd., priority 2020, published 2024).

*1 amine or outer side, *2 acyl side, *3 side chain or, on linkers, in order; H or OH if unused. Primed or numbered codes have the meaning given here. The star is where a group is joined. C20 diacid = O=C(O)CCCCCCCCCCCCCCCCCCC(=O)*; γGlu = O=C(O)[C@H](CCC(=O)[*:2])N[*:1]; PEG2′ = not defined here

One assay concerns LX2 cells. The assay can be described thus: Activity evaluation in LX2 cell model (α-SMA protein expression). The class given is cell-based, human. To be noted: 1.0 μM and 10.0 μM, 48 hours incubation, GAPDH internal reference, FIG. 1. The source says: In LX2 cell model (which can be directly used as the evaluation model of hepatic fibrosis cells in vitro, because LX2 cells are human liver activated stellate cells. The LX2 cells are purchased from China Center for Type Culture Collection of the Chinese Academy of Sciences, Shanghai, China), the anti-fibrosis activities of peptide compounds 1-25 are preliminarily screened, and the expression of the marker α-SMA protein of myofibroblast activation is detected. The peptide compounds 1-25 is subjected to cell incubation for 48 hours by using two concentrations (1.0 μM and 10.0 μM). The control group is given the same volume of Dulbecco's modified Eagle medium (DMEM) (purchased from Gibco in the United States), and GAPDH (purchased from TransGen Biotech) as the internal reference, α-actin (α-SMA) is a symbolic feature that distinguishes myoblast cells from myofibroblasts.

Assay [1] has as its system CCl4 induced hepatic fibrosis. Briefly: Carbon tetrachloride (CCl4) induced hepatic fibrosis model in mice. The class given is in vivo, C57BL/6J mice. The following applies: 100.0 μg/kg intraperitoneal, 3 weeks of administration; for aggregation of inflammatory cells in the liver (HE staining) / hepatic fibrosis of mice: FIG. 2; for expression of Collagen I in the liver (immunohistochemistry): FIG. 3; for collagen deposition in the liver (Sirius red staining): FIG. 4. As for the experimental part: Molding method: 72 male C57BL/6J mice, male, 18-22 g in weight and 8 weeks old, provided by Laboratory Animal Center, Sun Yat-sen University, randomly divided into 12 groups: 1) control group (Oil)+saline, intraperitoneal injection, n=6; 2) model control group (CCl4)+saline, intraperitoneal injection, n=6; administration of CCl4 to mice once every three days for 6 weeks; 3) model administration group (CCl4)+100.0 μg/kg series of compounds (group 10), intraperitoneal injection, n=6/group. The mice in the control group are injected with corn oil at the same volume and frequency according to the administration volume of 20% CCl4 at the weight of 5.0 μL/g. Administration frequency: administration of CCl4 to mice once every three days for 6 weeks. After 3 weeks of administration of CCl4 to mice in the model administration group, peptide compounds 1, 5, 7, 11, 12, 13, 17, 18, 21 and 22 are administered for 3 weeks from the 4th week. CCl4 and Oil are purchased from Shanghai Aladdin Biochemical Technology Co., Ltd.
In the CCl4 induced hepatic fibrosis model, the manifestations are: inflammatory cell infiltration around the central vein area, hydropic degeneration of hepatic cells, and increased accumulation of collagen fibers in the portal area and the hepatic interlobular septum. After three weeks of administration, the mice are treated and sampled. Blood is taken from the retrobulbar vein for detection of serological indicators, and liver tissue is taken for pathological analysis.
(§1) Hematoxylin-eosin (H&E) staining: paraffin embedded tissue sections are taken and baked at 60° C. for 1 h. Dewaxing and hydration: xylene for 20 minutes→xylene for 20 minutes→absolute alcohol for 15 minutes→absolute alcohol for 15 minutes→95% alcohol for 10 minutes→90% alcohol for 5 minutes→80% alcohol for 5 minutes. Staining: hematoxylin for 7 minutes→rinsing with tap water→differentiation with 1% hydrochloric acid alcohol for 1 s→rinsing with tap water→eosin staining for 15 s-20 s→rinsing with tap water. Dehydration and transparency: 75% alcohol for 1 s→85% alcohol for 1 s→95% alcohol for 1 s→100% alcohol for 1 s→xylene for Is→xylene for 1 s. The sections are aired for 30 minutes and sealed with gum.
Sirius red staining: drying and dewaxing; standing for 5.0 minutes in double distilled water; Sirius red staining for 60-80 minutes in a dark room; washing for 5 s with 0.5% glacial acetic acid; dehydration and transparency, sealing and taking photos.
Immunohistochemistry: drying sections, dewaxing, and then soaking in double distilled water for 5 minutes. Antigen retrieval: putting the shelf where pathological sections are placed into a beaker containing citric acid buffer (PH=6.0), and keeping it under high temperature and pressure for 15 minutes; taking out the beaker and letting it stand at room temperature until the temperature drops to the room temperature, then taking out the sections and putting them into 3.0% hydrogen peroxide for 10 minutes to block the endogenous peroxidase activity, and then washing them with PBS for three times, 5 minutes each time; sealing the tissues with 1.0% BSA for 1 h; removing 1.0% BSA, adding Collagen I antibody on the tissue according to the proportion recommended in the Description, and staying overnight at 4° C.; taking out the pathological sections next day, adding the second antibody with horseradish peroxidase after the room temperature is restored, incubating it at 37° C. for 60 minutes, and then use DAB (diaminobenzidine) ([…], USA) to develop color; and re-staining with hematoxylin staining solution, washing with tap water for 5 minutes, differentiating with 1% hydrochloric acid alcohol, then washing with tap water for 5 minutes again, dehydrating, airing, sealing, and taking photos (H&E staining solution and Sirius red staining solution are purchased from Sangon Biotech (Shanghai) Co., Ltd., and Collagen I antibody is purchased from CST Corporation).

Assay [2] deals with bleomycin induced pulmonary fibrosis. Briefly: Bleomycin (BLM) induced pulmonary fibrosis model in mice. The class given is in vivo, C57BL/6J mice. To be noted: 150 μg/kg daily intraperitoneal, 14 days, FIG. 5; for degree of pulmonary fibrosis (H&E staining and Masson staining): compared with bleomycin control group; for fibronectin in pulmonary parenchyma (α-SMA and Collagen1 immunohistochemistry): compared with bleomycin group. The method, then:
(§2) Molding method: 78 male C57BL/6J mice, 16-18 g in weight and 6-8 weeks old, provided by Laboratory Animal Center, Sun Yat-sen University, randomly divided into 13 groups: 1) normal control group (Normal), n=6; 2) sham-operated saline control group (Saline), n=6; 3) bleomycin model group (BLM), n=6; and 4) model treatment group: administration of 150 μg/kg series compounds to mice, 10 groups in total, n=6/group. On the 7th day after the operation of bleomycin induced pulmonary fibrosis in mice, mice in the model treatment group are treated with drugs (administration frequency: daily administration/150 μg/kg, intraperitoneal injection). Samples are taken 14 days after administration, and pathological observations are recorded.
(§3) The bleomycin (purchased from TCI Shanghai)) induced pulmonary fibrosis model manifests the following pathological features: bronchiectasis, hydropic degeneration of bronchial epithelial cells, obvious edema and widening of alveolar interstitium, and deposition of a large number of fibroblasts and collagen tissue. The alveolar structure almost completely disappears, filled with fibrous connective tissue, and accompanied by inflammatory cell infiltration. After 14 days of administration, the mice in the model treatment group are treated and sampled. Blood is taken from the retrobulbar vein for detection of serological indicators, and […] is taken for pathological analysis.
as §1, with “H&E” for “Hematoxylin-eosin (H&E)”, “1 s→xylene” for “Is→xylene”
Masson staining: drying and dewaxing; mordanting; adding celestine blue staining solution for 2-3 min, and washing with water; adding Mayer hematoxylin staining solution and washing with water; differentiating with acid alcohol differentiation liquid for several seconds, and washing with tap water; adding ponceau magenta staining solution and washing with distilled water; treating with phosphomolybdic acid solution; adding aniline blue staining solution for 5 min; treating with weak acid solution for 2 min; dehydration and transparency, airing and sealing with gum.
Immunohistochemistry: drying sections, dewaxing, and then soaking in double distilled water for 5 minutes. […]

Another assay concerns MMP9. Briefly: ELISA of MMP9 in serum of mice of the bleomycin model. The class given is in vivo, C57BL/6J mice. To be noted: BLM mice, 150 μg/kg daily intraperitoneal, 14 days, FIG. 6-A. The method, then: as §2, §3
(§4) The occurrence and development of fibrotic diseases are related to TGF-β and MMP-9 induced EMT process. Matrix metalloproteinases (MMPs) are matrix degrading proteases that degrade all components of extracellular matrix. They participate in the pathophysiological process of pulmonary fibrosis, play an important role in the abnormal remodeling of extracellular matrix and destruction of basement membrane, and promote the recruitment of inflammatory cells and fibroblasts. The increased expression of MMP-9 in pulmonary fibrosis animal models and patients, higher than the normal MMP-9 level, may destroy normal tissue structure and increase the migration of inflammatory cells to the disease site. In order to further explore the inhibitory mechanism of polypeptide drugs on bleomycin induced pulmonary fibrosis, we detect the expression of TGFβ, MMP9 cell factors in serum of mice in each group by ELISA. […] We speculate that its mechanism should be related to TGF-β.

The next assay relates to TGF-β. Briefly: ELISA of TGFβ in serum of mice of the bleomycin model. The format is in vivo, C57BL/6J mice. The following applies: BLM mice, 150 μg/kg daily intraperitoneal, 14 days, FIG. 6-B. The method, then: as §2, §3, §4

In the case of “(PEG2-PEG2-γGlu-CO(CH2)18CO2H)-Val-Val-Gly-Ser-Pro-Ser-Ala-Gln-Asp-Glu-Ala-Ser-Pro-Leu-NH2 ({C20 diacid-γGlu-PEG2′-PEG2′}-VVGSPSAQDEASPL-NH2) [Compound 1]”, the “inhibiting and improving the activity of α-SMA (expression of α-SMA protein)” value (“inhibiting and improving the activity” below) in the assay on LX2 cells is “better effects on inhibiting and improving the activity of α-SMA”. In assay [1], the “aggregation of inflammatory cells in the liver (HE staining)” value (shortened to “aggregation of inflammatory cells”) is listed as “significantly improved”, the “hepatic fibrosis of mice” value is reported as “significantly improved”, the “expression of Collagen I in the liver (immunohistochemistry)” value (“expression of Collagen I in the liver” for short) was “significant therapeutic improvement” and the “collagen deposition in the liver (Sirius red staining)” value (“collagen deposition in the liver” below) is given as “significant therapeutic improvement”. Further, in assay [2], the “degree of pulmonary fibrosis (H&E staining and Masson staining)” value (“degree of pulmonary fibrosis” for short) is listed as “significantly reduced”; the “fibronectin in pulmonary parenchyma (α-SMA and Collagen1 immunohistochemistry)” value (shortened to “fibronectin in pulmonary parenchyma”) is given as “significantly less than that in bleomycin group”. Further, the “concentration of MMP9 in serum of mice” value in the assay on MMP9 is on record as “significantly reduce”. Moreover, in the assay with TGF-β, the “concentration of TGF-β in serum of mice” value was “significantly reduce”.
Consider “(PEG2-PEG2-γGlu-CO(CH2)18CO2H)-Val-Val-Gly-Ser-Pro-Ser-Ala-Gln-Glu-Asp-Ala-Ser-Pro-Leu-NH2 ({C20 diacid-γGlu-PEG2′-PEG2′}-VVGSPSAQEDASPL-NH2) [Compound 12]”, for which the “inhibiting and improving the activity” value in the assay with LX2 cells was “better effects on inhibiting and improving the activity of α-SMA”. In addition, in assay [1], the “aggregation of inflammatory cells” value is on record as “significantly improved”, the “hepatic fibrosis of mice” value is “significantly improved”, the “expression of Collagen I in the liver” value is given as “significant therapeutic improvement” and the “collagen deposition in the liver” value was “significant therapeutic improvement”. In assay [2], the “degree of pulmonary fibrosis” value was “significantly reduced”; the “fibronectin in pulmonary parenchyma” value is on record as “significantly less than that in bleomycin group”. In the assay with MMP9, the “concentration of MMP9 in serum of mice” value was “significantly reduce”. Moreover, in the assay on TGF-β, the “concentration of TGF-β in serum of mice” value was “significantly reduce”.
For “Compound 17: cyclic peptide compound, head-to-tail amide (VVGSPSAQDEASPL; head-to-tail cyclisation; Compound 17)”, the “inhibiting and improving the activity” value in the assay on LX2 cells is “better effects on inhibiting and improving the activity of α-SMA”. Further, in assay [1], the “aggregation of inflammatory cells” value is on record as “significantly improved”, the “hepatic fibrosis of mice” value is reported as “significantly improved”, the “expression of Collagen I in the liver” value was “significant therapeutic improvement” and the “collagen deposition in the liver” value is “significant therapeutic improvement”. Moreover, in assay [2], the “degree of pulmonary fibrosis” value is “significantly reduced”; the “fibronectin in pulmonary parenchyma” value is “significantly less than that in bleomycin group”. Besides, in the assay with MMP9, the “concentration of MMP9 in serum of mice” value is recorded as “significantly reduce”. Further, the “concentration of TGF-β in serum of mice” value in the assay with TGF-β is reported as “significantly reduce”.
For the substance “Compound 18: cyclic peptide compound, head-to-tail amide (VVGSPSAQDEASPA; head-to-tail cyclisation; Compound 18)”, the “inhibiting and improving the activity” value in the assay on LX2 cells was “better effects on inhibiting and improving the activity of α-SMA”. In addition, in assay [1], the “aggregation of inflammatory cells” value is given as “significantly improved”, the “hepatic fibrosis of mice” value is recorded as “significantly improved”, the “expression of Collagen I in the liver” value was “significant therapeutic improvement” and the “collagen deposition in the liver” value is given as “significant therapeutic improvement”. Besides, in assay [2], the “degree of pulmonary fibrosis” value was “significantly reduced”; the “fibronectin in pulmonary parenchyma” value is reported as “significantly less than that in bleomycin group”. For the same substance, in the assay on MMP9, the “concentration of MMP9 in serum of mice” value is reported as “significantly reduce”. Besides, in the assay on TGF-β, the “concentration of TGF-β in serum of mice” value is reported as “significantly reduce”.
